Source: patent publication US11415579B2, “Assay for measuring a rate of reaction between a target and a ligand candidate” (Imperial College Innovations Ltd., priority 2016, dated 2022)

Columns and labels:
[1] = Kinetic thiol consumption assay with model thiol glutathione; type: physicochemical; design: Rate constant with glutathione (k(GSH)): unit not given here; conditions: for Rate constant with glutathione (k(GSH)): 500 μM ligand, 5 μM thiol, phosphate buffer pH 8; for Rate constant with Glutathione: Protein: Glutathione, cysteine position NA, in h-1
Procedure, shortened: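 Rate constants for acrylamide reaction with 5 μM glutathione come from first-order exponential fits of normalized fluorescence decay (ex 380, em 470 nm). Reactions run in degassed phosphate buffer at pH 8 containing TCEP beads, room temperature.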

[2] = target: T1, human cyclin-dependent kinase 2 (Cdk2) (Homo sapiens, UniProt P24941); assay: Kinetic thiol consumption assay with wild type Cdk2 (C177); type: binding; design: key to Rate enhancement, Cdk2 WT: k(Cdk2) divided by k(model thiol); Rate constant with Cdk2 (k(Cdk2)): unit not given here; conditions: for Rate constant with Cdk2 (k(Cdk2)): 500 μM ligand, 5 μM thiol, phosphate buffer pH 8; for Rate enhancement, Cdk2 WT: no additional mutations; for Rate constant with Cdk2 WT: Protein: Cdk2, cysteine position WT, in h^-1; for k(Cdk2)/k(Cdk2_mut) rate enhancement: model thiol Cdk2[C177A, F80C, K278C]; for k(Cdk2)/k(GSH) rate enhancement: model thiol glutathione
T1 construct: poly-histidine; made in house; host or cells: E. coli
Procedure, shortened: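 His-tagged human Cdk2 from E. coli (sole surface cysteine C177) or a model thiol, each 5 μM in degassed phosphate buffer pH 8 with immobilized TCEP, reacted with acrylamides at room temperature. Fluorescence (ex 380/em 470) normalized to DMSO/thiol control over time; first-order rate constants, Cdk2 rate divided by model-thiol rate.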

Cdk2[C177A, F80C, K278C] = target: T2, Cdk2[C177A, F80C, K278C] (Homo sapiens, UniProt P24941, C177A/F80C/K278C); assay: Kinetic thiol consumption assay with mutant Cdk2 as model thiol; type: binding; design: unit not given here; conditions: 500 μM ligand, 5 μM thiol, phosphate buffer pH 8
T2 construct: poly-histidine; made in house; host or cells: E. coli
Procedure: A library of 120 acrylamides was screened against a) human cyclin-dependent kinase 2 (Cdk2, which contains one surface exposed cysteine residue—C177), prepared by cloning cDNA into the pRSETA bacterial expression vector to generate a poly-histidine tagged Cdk2 fusion that was purified from E. coli using standard techniques, and b) a model thiol (specific details are given below). The structures of these 120 acrylamides are set out in Table 1, above.
To wells containing 150 μL thiol (Cdk2 or model thiol) (5 μM) in degassed phosphate buffer (pH 8) was added immobilized TCEP beads (2% v/v).
After incubation of the fluorescence plates for 1 hour at room temperature, fluorescence measurements (excitation/emission of 380/470 nm) were taken on a PerkinElmer EnVision multilabel plate reader and processed with EnVision Workstation version 1.12.
Fluorescence measurements were normalized against a DMSO/thiol only control and plotted against time.
Rate constants were calculated using GraphPad software Prism version 6 by fitting a first order exponential decay to the data. The rate constant for each acrylamide with Cdk2 was divided by the rate constant for that fragment with the model thiol to provide the rate enhancement for each ligand candidate.
The model thiol used in Example 2 is a mutant form of human Cdk2 (C177A, F80C, K278C) which contains two engineered surface exposed cysteine residues. Mutations were introduced by site-directed mutagenesis and the resulting cDNA was cloned into the pRSETA bacterial expression vector to generate a poly-histidine tagged Cdk2 fusion that was purified from E. coli using standard techniques.

Cdk2(C177A, F80C) = target: T3, Cdk2(C177A, F80C) (Homo sapiens, UniProt P24941, C177A/F80C); assay: Kinetic thiol consumption assay with Cdk2 mutant F80C, incl. kobs versus concentration (Kd, k2); type: binding; design: key to Rate enhancement, Cdk2 F80C: Cdk2 rate constant divided by model-thiol rate constant; conditions: additional mutation C177A; for Rate constant with Cdk2 F80C: Protein: Cdk2, cysteine position F80C, in h^-1
T3 construct: poly-histidine; made in house; host or cells: E. coli
Procedure, shortened: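 His-tagged Cdk2(C177A/F80C) from E. coli or model thiol, 5 μM in degassed phosphate buffer pH 8 with TCEP beads, reacted with acrylamide ligands; fluorescence (ex/em 380/470 nm) normalized to DMSO control and fitted to first-order decay for kobs. Kd and k2 obtained from hyperbolic fit of kobs versus ligand concentration.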

Cdk2(H71C) (C177A) = target: T4, Cdk2(H71C) (C177A) (Homo sapiens, UniProt P24941, C177A/H71C); assay: Kinetic thiol consumption assay with Cdk2 mutant H71C; type: binding; design: key to Rate enhancement, Cdk2 H71C: rate constant with Cdk2 ÷ rate constant with model thiol (fold); conditions: additional mutation C177A; for Rate constant with Cdk2 H71C: Protein: Cdk2, cysteine position H71C, in h^-1
T4 construct: poly-histidine; made in house; host or cells: E. coli
Procedure, shortened: (§1)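 Read-out is fluorescence at 380/470 nm, taken after 1 h at room temperature and normalized to a DMSO/thiol-only control over time. Thiol (5 μM Cdk2 mutant or model thiol) was in degassed pH 8 phosphate buffer with 2% v/v TCEP beads. Acrylamide rate constants for Cdk2 were divided by those with model thiol.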

Cdk2(S276C) (C177A) = target: T5, Cdk2(S276C) (C177A) (Homo sapiens, UniProt P24941, C177A/S276C); assay: Kinetic thiol consumption assay with Cdk2 mutant S276C; type: binding; design: key to Rate enhancement, Cdk2 S276C: rate constant with Cdk2 ÷ rate constant with model thiol (fold); conditions: additional mutation C177A; for Rate constant with Cdk2 S276C: Protein: Cdk2, cysteine position S276C, in h^-1
T5 construct: poly-histidine; made in house; host or cells: E. coli
Procedure, shortened: as §1

Cdk2(N272C) (C177A) = target: T6, Cdk2(N272C) (C177A) (Homo sapiens, UniProt P24941, C177A/N272C); assay: Kinetic thiol consumption assay with Cdk2 mutant N272C; type: binding; design: key to Rate enhancement, Cdk2 N272: rate constant with Cdk2 ÷ rate constant with model thiol (fold); conditions: for Rate enhancement, Cdk2 N272: Cdk2 N272, additional mutation C177A; for Rate constant with Cdk2 N272C: Protein: Cdk2, cysteine position N272C, additional mutation C177A, in h^-1
T6 construct: poly-histidine; made in house; host or cells: E. coli
Procedure, shortened: as §1

Cdk2(T182C) (C177A) = target: T7, Cdk2(T182C) (C177A) (Homo sapiens, UniProt P24941, C177A/T182C); assay: Kinetic thiol consumption assay with Cdk2 mutant T182C; type: binding; design: key to Rate enhancement, Cdk2 T182C: rate constant with Cdk2 ÷ rate constant with model thiol (fold); conditions: additional mutation C177A; for Rate constant with Cdk2 T182C: Protein: Cdk2, cysteine position T182C, in h^-1
T7 construct: poly-histidine; made in house; host or cells: E. coli
Procedure, shortened: as §1

Cdk2(R122C) (C177A) = target: T8, Cdk2(R122C) (C177A) (Homo sapiens, UniProt P24941, C177A/R122C); assay: Kinetic thiol consumption assay with Cdk2 mutant R122C; type: binding; design: key to Rate enhancement, Cdk2 R122C: rate constant with Cdk2 ÷ rate constant with model thiol (fold); conditions: additional mutation C177A; for Rate constant with Cdk2 R122C: Protein: Cdk2, cysteine position R122C, in h-1
T8 construct: poly-histidine; made in house; host or cells: E. coli
Procedure, shortened: as §1

Cdk2(S181C) (C177A) = target: T9, Cdk2(S181C) (C177A) (Homo sapiens, UniProt P24941, C177A/S181C); assay: Kinetic thiol consumption assay with Cdk2 mutant S181C; type: binding; design: key to Rate enhancement, Cdk2 S181C: rate constant with Cdk2 ÷ rate constant with model thiol (fold); conditions: additional mutation C177A; for Rate constant with Cdk2 S181C: Protein: Cdk2, cysteine position S181C, in h^-1
T9 construct: poly-histidine; made in house; host or cells: E. coli
Procedure, shortened: as §1

| Compound | Rate constant with glutathione (k(GSH)) [1] | Rate constant with Cdk2 (k(Cdk2)) [2] | Rate enhancement, Cdk2 WT [2] | Rate constant with Cdk2 WT [2] | k(Cdk2)/k(Cdk2_mut) rate enhancement [2] | k(Cdk2)/k(GSH) rate enhancement [2] | Rate constant with Cdk2[C177A, F80C, K278C] (k(Cdk2_mut)) (Cdk2[C177A, F80C, K278C]) | Rate enhancement, Cdk2 F80C (Cdk2(C177A, F80C)) | Rate enhancement, Cdk2 H71C (Cdk2(H71C) (C177A)) | Rate enhancement, Cdk2 S276C (Cdk2(S276C) (C177A)) | Rate constant with Cdk2 S276C (Cdk2(S276C) (C177A)) | Rate enhancement, Cdk2 N272 (Cdk2(N272C) (C177A)) | Rate constant with Cdk2 N272C (Cdk2(N272C) (C177A)) | Rate enhancement, Cdk2 T182C (Cdk2(T182C) (C177A)) | Rate constant with Cdk2 T182C (Cdk2(T182C) (C177A)) | Rate enhancement, Cdk2 R122C (Cdk2(R122C) (C177A)) | Rate constant with Cdk2 R122C (Cdk2(R122C) (C177A)) | Rate enhancement, Cdk2 S181C (Cdk2(S181C) (C177A)) | Rate constant with Cdk2 S181C (Cdk2(S181C) (C177A)) | other results |
| --- | --- | --- | --- | --- | --- | --- | --- | --- | --- | --- | --- | --- | --- | --- | --- | --- | --- | --- | --- | --- |
| C=CC(=O)NCC1CCCN1S(=O)(=O)c1ccc(C(=O)O)cc1 (centres unmarked) [BN122] | 0.00283 | 0.00219 | 0.3657 | 0.002191 | 1.879 | 0.7753 | 0.00117 | 0.3899 | 0 | 0.1643 | 0.0009842 | 0.7423 | 0.004448 | 2.502 | 0.01499 | 0.4317 | 0.002587 | 0.9743 | 0.005838 | Rate constant with Glutathione [1]: 0.005992; Rate constant with Cdk2 F80C (Cdk2(C177A, F80C)): 0.002336 |
| C=CC(=O)N(c1cccc2ncccc12)C1CCC1 [CA-032] | 0.01642 | 0.02299 |  |  | 2.082 | 1.4 | 0.01104 |  |  |  |  |  |  |  |  |  |  |  |  |  |
| C=CC(=O)N1CCn2c(C(=O)NC3CC3)ccc2C1C (centres unmarked) [CA-040] | 0.0353 | 0.02965 |  |  | 0.9818 | 0.8399 | 0.0302 |  |  |  |  |  |  |  |  |  |  |  |  |  |
| C=CC(=O)N(C1CC1)C1CCCCC1C1CCCCC1 (centres unmarked) [CA-081] | 0.00172 | 0.00879 |  |  | 1.851 | 5.108 | 0.00475 |  |  |  |  |  |  |  |  |  |  |  |  |  |
| C=CC(=O)N1CCCCCC1C/C=C/c1ccccc1 (centres unmarked) [CA-096] | 0.01134 | 0.0034 |  |  | 0.2652 | 0.3001 | 0.01283 |  |  |  |  |  |  |  |  |  |  |  |  |  |
| C=CC(=O)N(Cc1ccco1)Cc1ccco1 [CA-099] | 0.23 | 0.2899 |  |  | 18.23 | 1.26 | 0.0159 |  |  |  |  |  |  |  |  |  |  |  |  |  |
| C=CC(=O)N1CCC2(CC1)NC(=O)C1(CCCCC1)N2 [CA-129] | 0.00771 | 0.00274 |  |  | 1.317 | 0.3553 | 0.00208 |  |  |  |  |  |  |  |  |  |  |  |  |  |
| C=CC(=O)Nc1ccccc1C#N [EL-1178] |  | 0.1611 | 3.342 | 0.1611 | 0.9764 |  | 0.165 | 1.938 | 0.5613 | 0.934 | 0.04503 | 0.1844 | 0.008888 | 5.018 | 0.2419 | 0.491 | 0.02367 | 0.5323 | 0.02566 | Rate constant with Cdk2 F80C (Cdk2(C177A, F80C)): 0.09345; Rate constant with Cdk2 H71C (Cdk2(H71C) (C177A)): 0.02706 |
| CC1CN(C(=O)CCl)CC(C)O1 (centres unmarked) [EN012] |  |  | 1.086 | 0.2933 |  |  |  | 0 | 0.03607 | 0.5904 | 0.1594 | 0.1055 | 0.02849 | 0.3161 | 0.08536 | 0.02811 | 0.00759 | 0.067 | 0.01809 | Rate constant with Glutathione [1]: 0.27; Rate constant with Cdk2 H71C (Cdk2(H71C) (C177A)): 0.009738 |
